Structures are written as SMILES. Like-named read-outs stand apart in the source and are kept apart here.

This is an account of results in patent US8247437B2, “N-hydroxyamide derivatives and use thereof” (Merck Serono SA, priority 2004, dated 2012).

For one test, the target named is T1, gelatinase A (MMP-2) (Homo sapiens, UniProt P08253).
T1 sequence (P08253 110-660): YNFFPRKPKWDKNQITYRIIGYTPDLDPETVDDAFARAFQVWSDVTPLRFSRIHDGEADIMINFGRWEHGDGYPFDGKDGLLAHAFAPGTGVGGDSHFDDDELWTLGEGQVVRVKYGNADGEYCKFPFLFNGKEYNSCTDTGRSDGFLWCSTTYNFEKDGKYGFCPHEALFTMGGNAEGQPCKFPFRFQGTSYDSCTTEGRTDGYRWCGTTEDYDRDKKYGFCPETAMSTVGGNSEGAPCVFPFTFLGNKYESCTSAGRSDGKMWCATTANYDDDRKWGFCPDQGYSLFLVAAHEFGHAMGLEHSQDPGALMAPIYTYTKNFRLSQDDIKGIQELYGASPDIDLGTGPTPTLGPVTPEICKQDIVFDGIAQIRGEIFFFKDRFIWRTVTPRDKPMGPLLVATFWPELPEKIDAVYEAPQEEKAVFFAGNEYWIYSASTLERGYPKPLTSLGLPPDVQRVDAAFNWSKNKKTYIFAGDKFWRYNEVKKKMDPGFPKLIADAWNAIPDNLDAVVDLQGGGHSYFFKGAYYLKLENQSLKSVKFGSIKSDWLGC
In words: MMP-2 enzyme inhibition assay (coumarin-labelled peptide substrate McaPLGLDpaAR). In kind it is biochemical. On the procedure: (§1) Stock solutions were made up as follows: Assay Butter: 100 mM Tris-HCl pH 7.6 is containing 100 mM NaCl, 10 mM CaCl2, and 0.05% Brij 35.
(§2) Substrate: 0.4 mM McaPLGLDpaAR (from Bachem) (0.437 mg/ml) stock solution in 100% DMSO (stored at −20° C.). Dilute to 8 μM in assay butter.
(§3) Enzyme: Recombinant human 92 kDa gelatinase (MMP-9; APMA (4-aminophenyl mercuric acetate)-activated if necessary) appropriately diluted in assay butter.
(§4) Test Compounds were prepared initially as 10 mM compound solution in 100% DMSO, diluted to 1 mM in 100% DMSO, then serially diluted 3-fold in 100% DMSO across columns 1-10 of a 96-well microtitre plate Assay concentration range, 100 μM (column 1) to 5.1 nM (column 10).
(§5) The assay was performed in a total volume of 100 μL per well in 96-well microfilm plates. Activated enzyme (20 μL) was added to the wells followed by 20 μL of assay butter. Appropriate concentrations of test compounds dissolved in 10 μL of DMSO were then added followed by 50 μL of McaPLGLDpaAR (8 μM, prepared by dilution of DMSO stock in assay butter). For each as say ten concentrations of test compound were examined in duplicate. Control wells lack either enzyme or test compound. The reactions were incubated at 37° C. for 2 hours. The fluorescence at 405 nm was measured immediately with an SLT Fluostar fluorometer (SL T Labinstruments GmbH, Grödig, Austria) using 320 nm excitation, without stopping the reaction.
(§6) The effect of the test compound was determined from the dose response curve generated by the 10 duplicate concentrations of inhibitor. The IC50 (the concentration of compound required to give a 50% decrease in enzyme activity) was obtained by fitting data to the equation, Y=a+((b−a)/(1+(c/X)^d)). (Y=inhibition achieved for a particular dose; X=the dose in nM; a=minimum y or zero % inhibition; b=maximum y or 100% inhibition; c=is the IC50; d=is the slope). The result was rounded to one significant figure.
Compounds of the invention were tested for inhibitory activity against gelatinase A (MMP-2) in an assay using a coumarin-labelled peptide substrate, (7-methoxycoumarin-4-yl)acetyl-Pro-Leu-Gly-Leu-(3-[2,4-dinitrophenyl]-L-2,3diaminopropionyl)-Ala-Arg-NH2 (Mca PLGLDpaAR) (Knight et al, 1992, above). The protocol for this assay was as described for the MMP-9 assay above.

The target in another test is T2, collagenase (MMP-1) (Homo sapiens, UniProt P03956).
T2 sequence (P03956 100-469): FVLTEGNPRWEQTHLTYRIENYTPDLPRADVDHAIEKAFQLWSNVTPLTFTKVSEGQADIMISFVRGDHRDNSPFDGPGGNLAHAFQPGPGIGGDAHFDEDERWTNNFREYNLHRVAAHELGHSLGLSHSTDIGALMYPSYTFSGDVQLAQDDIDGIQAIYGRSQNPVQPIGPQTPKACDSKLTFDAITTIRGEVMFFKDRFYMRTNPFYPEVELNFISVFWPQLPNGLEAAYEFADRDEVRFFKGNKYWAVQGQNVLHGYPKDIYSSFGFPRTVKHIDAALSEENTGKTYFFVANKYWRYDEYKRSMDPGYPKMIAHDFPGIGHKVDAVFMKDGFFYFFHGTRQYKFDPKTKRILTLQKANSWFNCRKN
In words: MMP-1 enzyme inhibition assay (coumarin-labelled peptide substrate McaPLGLDpaAR). It counts as biochemical. On the procedure:
as §1, §2, §3, §4, §5, §6
Compounds of the invention were tested for inhibitory activity against collagenase (MMP-1) in an assay using a coumarin-labelled peptide substrate, (7-methoxycoumarin-4-yl)acetyl-Pro-Leu-Gly-Leu-(3-[2,4-dinitrophenyl]-L-2,3diaminopropionyl)-Ala-Arg-NH2 (Mca PLGLDpaAR) (Knight et al, 1992, above). The protocol for this assay was as described for the MMP-9 assay above.

Test [1] deals with 92 kDa gelatinase (MMP-9) (Homo sapiens, UniProt P14780). In words: MMP-9 enzyme inhibition assay (coumarin-labeled peptide substrate McaPLGLDpaAR). It counts as biochemical. The method, then:
Compounds of the invention were tested for inhibitory activity against 92 kDa gelatinase (MMP-9) in an assay using a coumarin-labeled peptide substrate, (7-methoxycoumarin-4-yl)acetyl-Pro-Leu-Gly-Leu-(3-[2,4-dinitrophenyl]-L-2,3diaminopropionyl)-Ala-Arg-NH2 (McaPLGLDpaAR) (Knight et al, FEBS Lett. 1992; 263-266).
as §1, §2, §3, §4, §5, §6

Another test deals with metalloelastase (MMP-12) (Homo sapiens, UniProt P39900). In words: MMP-12 enzyme inhibition assay (coumarin-labelled peptide substrate McaPLGLDpaAR). It counts as biochemical. On the procedure:
as §1, §2, §3, §4, §5, §6
Compounds of the invention were tested for inhibitory activity against metalloelastase (MMP-12) in an assay using a coumarin-labelled peptide substrate, (7-methoxycoumarin-4-yl)acetyl-Pro-Leu-Gly-Leu-(3-[2,4-dinitrophenyl]-L-2,3-diaminopropionyl)-Ala-Arg-NH2 (McaPLGLDpaAR) (Knight et al, 1992, above). The protocol for this assay was as described for the MMP-9 assay above.

Test [2] deals with IL-2-induced peritoneal recruitment of lymphocytes. In words: IL-2-induced peritoneal recruitment of lymphocytes. In kind it is in vivo, C3H/HEN mice. To be noted: mice, 15 min prior to IL-2, cells collected 24 h after IL-2. The method, then: Administration of IL-2 intraperitoneally causes migration of lymphocytes into the intraperitoneal cavity. This is a model for the cellular migration that occurs during inflammation.
C3H/HEN mice (Elevage Janvier, France) were intraperitoneally injected with IL-2 (Serono Pharmaceutical Research Institute, 20 μg/kg, in saline).
Compounds of the invention were suspended in 0.5% carboxymethylcellulose (CMC)/0.25% tween-20 and were administered by s.c. or p.o. route (10 ml/kg) 15 min prior to administration of IL-2.
Twenty-four hours after administration of IL-2, peritoneal white blood cells were collected by 3 successive lavages of the peritoneal cavity with 5 ml phosphate buffered saline (PBS)-1 mM EDTA (+4° C.). The suspension was centrifuged (1700 g×10 min at +4° C.). The resulting pellet was suspended in 1 ml PBS-1 mM EDTA.
Lymphocytes were identified and counted using a Beckman/Coulter counter.
The animals were divided into 6 groups (6 mice each group):
Group 1: (baseline) received 0.5% CMC/0.25% tween-20 (vehicle of compound of the invention) and saline (vehicle of IL-2);
Group 2: (control IL-2) received 0.5% CMC/0.25% tween-20 and injection of IL-2;
Group 3: Experimental group (Compound of the invention Dose 1) received a compound of the invention and injection of IL-2;
Group 4: Experimental group (Compound of the invention Dose 2) received a compound of the invention and injection of IL-2;
Group 5: Experimental group (Compound of the invention Dose 3) received a compound of the invention and injection of IL-2;
Group 6: Reference group received reference compound dexamethasone and injection of IL-2.
Inhibition of lymphocyte recruitment was calculated as follows:
Where Ly 1=Number of lymphocytes in group 1 (E3/μl), Ly 2=Number of lymphocytes in group 2 (E3/μl), Ly X=Number of lymphocytes in group X (3-5) (E3/μl).

Setting [3] is: Table 1, compounds of Formula (I), read-out: MMP-2 IC50.
The mark [4] stands for this setting: Table 1, compounds of Formula (I), read-out: MMP-1 IC50.
[5] abbreviates: Table 1, compounds of Formula (I), read-out: MMP-9 IC50.
Setting [6] is: Table 1, compounds of Formula (I), read-out: MMP-12 IC50.
Setting [7] is: dose 1 mg/kg po, Table 3, Formula (I).
Setting [8] is: dose 1 mg/kg po, Table 4, Formula (VI).

Chain of metalloelastase (MMP-12) (P39900 106-470): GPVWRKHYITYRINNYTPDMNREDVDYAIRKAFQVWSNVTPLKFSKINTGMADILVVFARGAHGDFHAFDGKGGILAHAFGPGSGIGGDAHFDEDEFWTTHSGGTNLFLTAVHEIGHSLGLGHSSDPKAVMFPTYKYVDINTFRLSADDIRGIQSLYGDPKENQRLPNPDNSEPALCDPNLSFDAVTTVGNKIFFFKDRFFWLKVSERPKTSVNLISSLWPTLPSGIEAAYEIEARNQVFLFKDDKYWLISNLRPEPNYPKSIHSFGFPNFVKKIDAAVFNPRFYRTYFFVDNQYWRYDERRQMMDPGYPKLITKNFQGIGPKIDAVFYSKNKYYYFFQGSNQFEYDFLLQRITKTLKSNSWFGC
Chain of 92 kDa gelatinase (MMP-9) (P14780 107-707 limits assumed): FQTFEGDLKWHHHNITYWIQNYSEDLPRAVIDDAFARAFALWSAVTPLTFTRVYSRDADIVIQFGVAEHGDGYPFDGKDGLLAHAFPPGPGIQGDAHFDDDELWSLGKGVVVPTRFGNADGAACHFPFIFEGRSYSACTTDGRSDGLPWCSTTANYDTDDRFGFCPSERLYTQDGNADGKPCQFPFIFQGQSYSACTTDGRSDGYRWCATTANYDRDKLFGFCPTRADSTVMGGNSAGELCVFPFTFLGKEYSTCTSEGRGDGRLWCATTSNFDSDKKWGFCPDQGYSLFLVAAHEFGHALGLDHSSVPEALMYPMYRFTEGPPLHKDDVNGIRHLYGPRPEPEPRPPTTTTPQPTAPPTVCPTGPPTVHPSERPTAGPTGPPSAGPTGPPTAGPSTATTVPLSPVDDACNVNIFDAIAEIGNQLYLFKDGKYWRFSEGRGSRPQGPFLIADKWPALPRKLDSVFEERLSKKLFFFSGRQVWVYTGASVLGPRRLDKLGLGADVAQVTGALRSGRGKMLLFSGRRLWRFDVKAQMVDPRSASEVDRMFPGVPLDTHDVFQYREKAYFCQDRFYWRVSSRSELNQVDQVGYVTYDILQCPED

Turning to `CC(C)C[C@H](C(=O)N1CC=C(c2ccccc2)CC1)[C@@H](O)C(=O)NO` [Example 61, (2R,3S)-N,2-dihydroxy-5-methyl-3-[(4-phenyl-3,6-dihydropyridin-1(2H)-yl)carbonyl]hexanamide], the IC50 (commonly the concentration needed to halve the response being measured) at gelatinase A (MMP-2) (setting [3]) was 0.008 µM; on collagenase (MMP-1) (setting [4]), more than 5 µM; in test [1] (setting [5]), 0.048 µM; at metalloelastase (MMP-12) (setting [6]), 0.002 µM. In addition, the “% inhibition of IL-2-induced peritoneal recruitment of lymphocytes” value (shortened to “% inhibition”) in test [2] (setting [7]) turned out to be 67%.

As to `CCOc1ccc(CCC[C@@H](C(=O)N2C[C@@H]3C[C@H]2CN3c2ccc(F)cc2)[C@H](O)C(=O)NO)cc1` [Example 47, (2S,3R)-6-(4-ethoxyphenyl)-3-{[(1S,4S)-5-(4-fluorophenyl)-2,5-diazabicyclo[2.2.1]hept-2-yl]carbonyl}-N,2-dihydroxyhexanamide], the “% inhibition” value in test [2] (setting [8]) is 41%.

Take `CCOc1ccc(CCC[C@@H](C(=O)N2CCN(CCN3CCOCC3)CC2)[C@H](O)C(=O)NO)cc1` [Example 37, (2S,3R)-6-(4-ethoxyphenyl)-N,2-dihydroxy-3-{[4-(2-morpholin-4-ylethyl)piperazin-1-yl]-carbonyl}hexanamide]: the half-inhibitory concentration (IC50) on gelatinase A (MMP-2) (Table 2, compounds of Formula (VI), read-out: MMP-2 IC50) is 0.065 µM; on collagenase (MMP-1) (Table 2, compounds of Formula (VI), read-out: MMP-1 IC50) it was more than 5 µM; in test [1] (Table 2, compounds of Formula (VI), read-out: MMP-9 IC50) it was 0.052 µM; on metalloelastase (MMP-12) (Table 2, compounds of Formula (VI), read-out: MMP-12 IC50), 0.023 µM. The “% inhibition” value in test [2] (setting [8]) is recorded as 42%.

In the case of `CC(C)C[C@H](C(=O)N1CCN(c2ccc(-c3ccccc3)cc2)C[C@H]1C)[C@H](O)C(=O)NO` [Example 53, (2S,3S)-3-{[(2R)-4-biphenyl-4-yl-2-methylpiperazin-1-yl]carbonyl}-N,2-dihydroxy-5-methylhexanamide], the IC50 is 0.0075 µM at gelatinase A (MMP-2) (setting [3]), more than 5 µM on collagenase (MMP-1) (setting [4]), 0.007 µM in test [1] (setting [5]) and 0.005 µM on metalloelastase (MMP-12) (setting [6]). In addition, in test [2] (setting [7]), the “% inhibition” value stood at 61%.

As to `CCOc1ccc(CCCC(C(=O)N2CCN(c3ccccn3)C[C@H]2C)[C@H](O)C(=O)NO)cc1` (mixture of isomers) [Example 6, (2S,3S)-6-(4-ethoxyphenyl)-N,2-dihydroxy-3-{[(2R)-2-methyl-4-pyridin-2-ylpiperazin-1-yl]-carbonyl}hexanamide], the IC50 was 0.008 µM at gelatinase A (MMP-2) (setting [3]), more than 5 µM on collagenase (MMP-1) (setting [4]), 0.022 µM in test [1] (setting [5]) and 0.02 µM on metalloelastase (MMP-12) (setting [6]). Besides, the “% inhibition” value in test [2] (setting [7]) is on record as 46%; in test [2] (dose 3 mg/kg po, Table 3, Formula (I)) it was 65%.

With `CCOc1ccc(CCC[C@@H](C(=O)N2CCC(Nc3ccccc3)CC2)[C@H](O)C(=O)NO)cc1` [Example 20, (2S,3R)-3-[(4-anilinopiperidin-1-yl)carbonyl]-6(4-ethoxyphenyl)-N,2-dihydroxyhexanamide], the IC50 against gelatinase A (MMP-2) is 0.082 µM; against collagenase (MMP-1) it was more than 5 µM; in test [1], 0.037 µM; against metalloelastase (MMP-12) it was 0.029 µM. The “% inhibition” value in test [2] (setting [8]) worked out at 38%.

As for `CC(C)C[C@H](C(=O)N1CCN(c2ccccn2)C[C@H]1C)[C@H](O)C(=O)NO` (single isomer, unassigned) [Example 4], the IC50 at gelatinase A (MMP-2) (setting [3]) came to 0.004 µM; at collagenase (MMP-1) (setting [4]) it was 0.301 µM; in test [1] (setting [5]), 0.012 µM; at metalloelastase (MMP-12) (setting [6]), 0.017 µM. For the same compound, in test [2] (setting [7]), the “% inhibition” value worked out at 39%.

Take `CCOc1ccc(CCC[C@H](C(=O)N2CCN(c3ccccn3)C[C@@H]2C)[C@H](O)C(=O)NO)cc1` [Example 7, (2S,3S)-6-(4-ethoxyphenyl)-N,2-dihydroxy-3-{[(2S)-2-methyl-4-(2-pyridinyl)piperazinyl]carbonyl}hexanamide]: in test [2] (setting [7]), the “% inhibition” value is 46%.
